Laboratory results taken from patent US8232406B2, “c-MET protein kinase inhibitors” (Vertex Pharmaceuticals Incorporated, priority 2006, dated 2012).

target: c-MET (Homo sapiens, UniProt P08581); assay: Ki determination for the inhibition of c-MET (standard radiometric 33P-ATP kinase assay, polyE4Y substrate); assay type: biochemical; details: 1.0 nM c-Met, 35 μM ATP, 0.5 mg/mL polyE4Y, 20 min; competitive tight-binding fit
Protocol: Ki Determination for the Inhibition of c-MET
Compounds of the invention were screened for their ability to inhibit c-MET kinase activity using a standard radiometric assay. Briefly, in this kinase assay the transfer of the terminal ^33P-phosphate in ^33P-ATP to substrate polyE4Y is interrogated. The assay was carried out in 96-well plates to a final volume of 100 μL per well containing 1.0 nM c-Met, 100 mM HEPES (pH 7.5), 10 mM MgCl2, 25 mM NaCl, 0.01% BSA, 1 mM DTT, 0.5 mg/mL polyE4Y, and 35 μM ATP. Accordingly, compounds of the invention were dissolved in DMSO to make 10 mM initial stock solutions. Serial dilutions in DMSO were then made to obtain the final solutions for the assay. A 1.5 μL aliquot of DMSO or inhibitor in DMSO was added to each well. The reaction was initiated by the addition of ^33P-ATP and polyE4Y (obtained from Sigma). After 20 min, the reaction was quenched with 50 μL of 30% trichloroacetic acid (TCA) containing 4 mM ATP. The reaction mixture was transferred to the 0.66 mm GF filter plates (Corning) and washed three times with 5% TCA. Following the addition of 50 μL of Ultimate Gold™ high efficiency scintillant (Packard Bioscience), the samples were counted in a Packard TopCount NXT Microplate Scintillation and Luminescence Counter (Packard BioScience). The Ki values were calculated using Microsoft Excel Solver macros to fit the data to the kinetic model for competitive tight-binding inhibition.

Chain of c-MET (P08581 25-1390): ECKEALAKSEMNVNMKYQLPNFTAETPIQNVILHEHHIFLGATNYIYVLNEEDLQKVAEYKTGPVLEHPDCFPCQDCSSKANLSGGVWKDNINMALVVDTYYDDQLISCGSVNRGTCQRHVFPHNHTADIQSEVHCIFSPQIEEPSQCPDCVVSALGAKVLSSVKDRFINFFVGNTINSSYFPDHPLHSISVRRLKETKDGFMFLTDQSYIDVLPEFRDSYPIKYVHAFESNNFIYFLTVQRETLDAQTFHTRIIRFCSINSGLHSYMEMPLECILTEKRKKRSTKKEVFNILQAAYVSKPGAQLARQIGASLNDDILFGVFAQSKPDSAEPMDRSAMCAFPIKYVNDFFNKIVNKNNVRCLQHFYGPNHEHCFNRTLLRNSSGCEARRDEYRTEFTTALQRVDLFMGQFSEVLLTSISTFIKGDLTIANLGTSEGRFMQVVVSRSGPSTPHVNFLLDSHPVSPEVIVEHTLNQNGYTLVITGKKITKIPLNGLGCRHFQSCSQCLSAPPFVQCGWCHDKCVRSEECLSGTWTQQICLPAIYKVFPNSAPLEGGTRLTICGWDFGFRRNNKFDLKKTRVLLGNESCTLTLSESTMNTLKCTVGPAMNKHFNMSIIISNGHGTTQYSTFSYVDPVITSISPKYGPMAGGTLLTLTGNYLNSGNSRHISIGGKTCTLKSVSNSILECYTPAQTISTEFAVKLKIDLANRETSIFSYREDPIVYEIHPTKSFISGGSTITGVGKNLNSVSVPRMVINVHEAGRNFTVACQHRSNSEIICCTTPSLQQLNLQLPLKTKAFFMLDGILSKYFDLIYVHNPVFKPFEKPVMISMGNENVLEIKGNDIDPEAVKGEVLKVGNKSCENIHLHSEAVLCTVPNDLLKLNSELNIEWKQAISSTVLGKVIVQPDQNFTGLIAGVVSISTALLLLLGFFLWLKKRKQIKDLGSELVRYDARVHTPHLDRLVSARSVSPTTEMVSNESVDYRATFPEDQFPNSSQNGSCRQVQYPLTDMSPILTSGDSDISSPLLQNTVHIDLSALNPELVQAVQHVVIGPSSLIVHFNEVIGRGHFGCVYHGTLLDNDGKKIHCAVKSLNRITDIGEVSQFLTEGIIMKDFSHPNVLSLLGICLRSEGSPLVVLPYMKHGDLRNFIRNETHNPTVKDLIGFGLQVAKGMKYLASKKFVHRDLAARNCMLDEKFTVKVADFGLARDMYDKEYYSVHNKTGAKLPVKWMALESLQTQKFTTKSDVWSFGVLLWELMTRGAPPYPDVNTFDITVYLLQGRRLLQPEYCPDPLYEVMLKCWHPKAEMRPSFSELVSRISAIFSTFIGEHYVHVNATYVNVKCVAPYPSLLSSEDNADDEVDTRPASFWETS

Structure (SMILES) | Ki
Nc1ncc(-c2ccc(F)cc2)cc1-c1nncn1-c1cccc(F)c1F [I-A-112] | 100 to 1000 nM
Nc1ncc(-c2ccc(CN3CCCC3)cc2)cc1-c1nnnn1-c1cc(Cl)ccc1F [I-A-595] | 100 to 1000 nM
Nc1ncc(-c2ccc(N3CCNCC3)cc2)cc1-c1nc2cccnc2n1-c1cccc(Cl)c1F [I-D-16] | 100 to 1000 nM
CN1CCN(C(=O)Nc2cccc(-c3cnc(N)c(-c4nnnn4-c4cccc(F)c4F)c3)c2)CC1 [I-A-270] | 100 to 1000 nM
CC(=O)Nc1ccc(-c2cnc(N)c(-c3nnnn3-c3c(Cl)cccc3Cl)c2)cc1 [I-A-621] | 100 to 1000 nM
Nc1ncc(-c2cccc(NC(=O)CN3CCCC3)c2)cc1-c1nnnn1-c1cccc(F)c1F [I-A-259] | ≤ 100 nM
Nc1ncc(-c2ccc(C(N)C(=O)O)cc2)cc1-c1nnnn1-c1cccc(F)c1F (centres unmarked) [I-A-205] | 100 to 1000 nM
Nc1ncc(-c2cccnc2)cc1-c1nnnn1-c1c(F)cccc1F [I-A-608] | 100 to 1000 nM
Nc1ncc(-c2nc3c(s2)CNCC3)cc1-c1nnnn1-c1cccc(Cl)c1F [I-A-533] | 100 to 1000 nM
CN1CCOc2cc(-c3cnc(N)c(-c4nnnn4-c4cccc(F)c4F)c3)ccc21 [I-A-289] | 100 to 1000 nM
CN(C)CC(=O)N1CCC(n2cc(-c3cnc(N)c(-c4nnnn4-c4cccc(Cl)c4F)c3)cn2)CC1 [I-A-444] | ≤ 100 nM
CN1CCN(c2ccc(-c3cnc(N)c(-c4nnnn4-c4cccc(Cl)c4Cl)c3)cc2)CC1 [I-A-85] | ≤ 100 nM
Nc1ncc(-c2cnn(C3CCNCC3)c2)cc1-c1nnnn1-c1c(F)ccc(F)c1Cl [I-A-640] | ≤ 100 nM
Nc1ncc(-c2ccc(CN3CCN(Cc4ccncc4)CC3)cc2)cc1-c1nnnn1-c1cccc(Cl)c1Cl [I-A-105] | 100 to 1000 nM
CN(C)CCNC(=O)c1ccc(-c2cnc(N)c(-c3nnnn3-c3cccc(Cl)c3Cl)c2)cc1 [I-A-124] | ≤ 100 nM
Nc1ncc(-c2cnn(C3CCNCC3)c2)cc1-c1nnnn1-c1cccc(F)c1Cl [I-A-385] | ≤ 100 nM
CC(C)(O)Cn1cc(-c2cnc(N)c(-c3nnnn3-c3cccc(F)c3F)c2)cn1 [I-A-348] | ≤ 100 nM
Nc1ncc(-c2cnn(C3CCOCC3)c2)cc1-c1nnnn1-c1cccc(Cl)c1F [I-A-397] | ≤ 100 nM
Nc1ncc(-c2cnn(C3CCNCC3)c2)cc1-c1nnnn1-c1c(Cl)cccc1Cl [I-A-631] | ≤ 100 nM
CC(=O)Nc1cccc(-c2cnc(N)c(-c3nnnn3-c3cccc(F)c3F)c2)c1 [I-A-139] | ≤ 100 nM
CCCN1CCC(n2cc(-c3cnc(N)c(-c4nnnn4-c4cccc(F)c4F)c3)nn2)CC1 [I-A-482] | ≤ 100 nM
Nc1ncc(-c2ccc(CN3CCOCC3)cc2)nc1-c1nncn1-c1cccc(F)c1F [I-A-5] | ≤ 100 nM

More lines, now with the values ahead:

Ki | Structure (SMILES)
≤ 100 nM | Nc1ncc(-c2ccc(CN3CCCC3)cc2)cc1-c1nnnn1-c1c(F)ccc(F)c1F [I-A-380]
≤ 100 nM | Nc1ncc(-c2cnn(CC3CCNCC3)c2)cc1-c1nnnn1-c1cccc(F)c1F [I-A-502]
≤ 100 nM | CCCN1CCc2cc(-c3cnc(N)c(-c4nnnn4-c4cccc(F)c4F)c3)sc2CC1 [I-A-519]
≤ 100 nM | Nc1ncc(-c2cnn(C3CCNCC3)c2)cc1-c1nc2cc(F)ccc2n1-c1cccc(Cl)c1F [I-D-19]
≤ 100 nM | COc1c(F)cccc1-n1nnnc1-c1cc(-c2ccc(CN(C)C)cc2)cnc1N [I-A-589]
≤ 100 nM | CC(=O)N1CCC(n2cc(-c3cnc(N)c(-c4nnc(C)n4-c4cccc(Cl)c4F)c3)cn2)CC1 [I-A-457]
≤ 100 nM | Nc1ncc(C2=CCN(C(=O)c3ccncc3)CC2)cc1-c1nnnn1-c1cccc(F)c1F [I-A-518]
≤ 100 nM | CC(C)C(=O)N1CCC(n2cc(-c3cnc(N)c(-c4nnnn4-c4cccc(Cl)c4F)c3)cn2)CC1 [I-A-441]
≤ 100 nM | Nc1ncc(-c2cc3c(s2)CCNCC3)cc1-c1nnnn1-c1cccc(F)c1F [I-A-430, 3-(1-(2,3-Difluorophenyl)-1H-tetrazol-5-yl)-5-(5,6,7,8-tetrahydro-4H-thieno[3,2-d]azepin-2-yl)pyridin-2-amine]
≤ 100 nM | Nc1ccc(-c2cnc(N)c(-c3nncn3-c3cccc(F)c3F)n2)cc1 [I-A-10]
